The structures appear in SMILES notation. pIC50: −log10 of the molar value. A value given as a limit tells only on which side of the number the result lay.

One assay has as its target SARS-CoV-2 MPRO (Severe acute respiratory syndrome coronavirus 2 (2019-nCoV) (SARS-CoV-2), UniProt P0DTD1). The experiment in a line: SARS-CoV-2 Mpro enzymatic assay (FRET substrate cleavage). Type of assay: biochemical. As to conditions: C-His6-tagged SARS-CoV-2 MPRO 25 nM, 30 min pre-incubation at RT, 60 min at 30° C., 10 doses from 25 μM; read-out: M pro IC50.
By pIC50 is commonly meant −log10 of the IC50, conventionally taken in molar units. In the case of `C[C@](C(=O)NC1CCC(F)(F)CC1)(c1cncc(F)c1)N(C(=O)[C@H](F)Cl)c1ccc(OC(F)(F)Cl)cc1` [Example 99a], the negative-log IC50 (pIC50) is greater than 7.00.
Consider `[2H][C@@](C(=O)NC1CCC(F)(F)CC1)(c1cncnc1)N(C(=O)[C@H](F)Cl)c1ccc(OC(F)(F)F)cc1` [Example 3b], for which the negative logarithm of the IC50 (pIC50) is less than 5.00.
Take `C[C@](C(=O)NC1CCOCC1)(c1cncnc1)N(C(=O)[C@H](F)Cl)c1ccc(S(F)(F)(F)(F)F)cc1` [Example 23a]: the negative logarithm of the IC50 (pIC50) is 5.00 to 6.00.
In the case of `C[C@](C(=O)NC1CCOCC1)(c1cncc(F)c1)N(C(=O)[C@H](F)Cl)c1ccc(S(F)(F)(F)(F)F)cc1` [Example 97a], the pIC50 is greater than 7.00.
As for `C[C@](C(=O)NC1CCOCC1)(c1cncnc1)N(C(=O)[C@H](F)Cl)c1ccc(OC(F)(F)F)cc1` [Example 5a], the negative logarithm of the IC50 (pIC50) is greater than 7.00.
In the case of `C[C@](C(=O)NC1CCOCC1)(c1cncc(F)c1)N(C(=O)[C@H](F)Cl)c1ccc(-c2nccs2)cc1` [Example 103a], the negative-log IC50 (pIC50) is greater than 7.00.
On the same count and under the same terms, with `C[C@](C(=O)NC1CCOCC1)(c1cncnc1)N(C(=O)[C@H](F)Cl)c1ccc(C2(C(F)(F)F)CC2)cc1` [Example 29a] the figure was 6.00 to 7.00; with `C[C@@](C(=O)NC1CCC(F)(F)CC1)(c1cncnc1)N(C(=O)[C@H](F)Cl)c1ccc(S(F)(F)(F)(F)F)cc1` [Example 22b], 5.00 to 6.00; with `C[C@@](C(=O)NC1CCOCC1)(c1cncnc1)N(C(=O)[C@H](F)Cl)c1ccc(OC(F)(F)F)cc1` [Example 5b], 5.00 to 6.00.
Turning to `C[C@](C(=O)NC1CCC(F)(F)CC1)(c1cncnc1)N(C(=O)[C@H](F)Cl)c1ccc(-c2nccs2)cc1` [Example 100a], the pIC50 is greater than 7.00.
Same read-out and setting: with `C[C@@](C(=O)NC1CCC(F)(F)CC1)(c1cccnc1)N(C(=O)[C@H](F)Cl)c1ccc(SC(F)(F)F)cc1` [Example 104b] the figure was 5.00 to 6.00; with `C[C@@](C(=O)NC1CCOCC1)(c1cncc(F)c1)N(C(=O)[C@H](F)Cl)c1ccc(-c2nccs2)cc1` [Example 103b], less than 5.00.
Take `C[C@@](C(=O)NC1CCOC1)(c1cncnc1)N(C(=O)[C@H](F)Cl)c1ccc(OC(F)(F)F)cc1` (single isomer, unassigned) [Example 6d]: the negative-log IC50 (pIC50) is less than 5.00.
The same measure, in the same setting: with `C[C@](C(=O)NC1CCC(F)(F)CC1)(c1cncnc1)N(C(=O)[C@H](F)Cl)c1ccc(OC(F)(F)F)cc1` [Example 4a] the figure was greater than 7.00; with `C[C@](C(=O)NC1CCC(F)(F)CC1)(c1cncnc1)N(C(=O)[C@H](F)Cl)c1ccc(OC(F)(F)Cl)cc1` [Example 92a], greater than 7.00.
`C[C@@](C(=O)NC1CCC(F)(F)CC1)(c1cncnc1)N(C(=O)[C@H](F)Cl)c1ccc(-c2cncs2)cc1` [Example 1b]: the pIC50 was 5.00 to 6.00.
Turning to `C[C@@](C(=O)NC1CCC(F)(F)CC1)(c1cncnc1)N(C(=O)[C@H](F)Cl)c1ccc(C2(C(F)(F)F)CC2)cc1` [Example 28b], the negative logarithm of the IC50 (pIC50) was less than 5.00.
In the case of `C[C@@](C(=O)NC1CCOCC1)(c1cncnc1)N(C(=O)[C@H](F)Cl)c1ccc(C2(C(F)(F)F)CC2)cc1` [Example 29b], the pIC50 is less than 5.00.
Regarding `C[C@@](C(=O)NC1CCC(F)(F)CC1)(c1cncnc1)N(C(=O)[C@H](F)Cl)c1ccc(OC(F)(F)Cl)cc1` [Example 92b], the pIC50 was 6.00 to 7.00.
Take `C[C@@](C(=O)NC1CCOCC1)(c1cncc(F)c1)N(C(=O)[C@H](F)Cl)c1ccc(OC(F)(F)Cl)cc1` [Example 98b]: the negative logarithm of the IC50 (pIC50) was 5.00 to 6.00.
Turning to `C[C@@](C(=O)NC1CCOCC1)(c1cccnc1)N(C(=O)[C@H](F)Cl)c1ccc(SC(F)(F)F)cc1` [Example 105b], the pIC50 was less than 5.00.
On to `[2H][C@](C(=O)NC1CCC(F)(F)CC1)(c1cncnc1)N(C(=O)[C@H](F)Cl)c1ccc(OC(F)(F)F)cc1` [Example 3a], for which the negative-log IC50 (pIC50) is greater than 7.00.
In the case of `C[C@](C(=O)NC1CCC2(CC1)COC2)(c1cncnc1)N(C(=O)[C@H](F)Cl)c1ccc(OC(F)(F)F)cc1` [Example 107a], the negative logarithm of the IC50 (pIC50) is greater than 7.00.
Turning to `Cn1ccc([C@](C)(C(=O)NC2CCC(F)(F)CC2)N(C(=O)[C@H](F)Cl)c2ccc(OC(F)(F)F)cc2)cc1=O` [Example 13a], the pIC50 is less than 5.00.
Take `C[C@@](C(=O)NC1CCOCC1)(c1cncc(F)c1)N(C(=O)[C@H](F)Cl)c1ccc(OC(F)(F)F)cc1` [Example 14b]: the pIC50 was less than 5.00.
With `C[C@@](C(=O)NC1CCC(F)(F)CC1)(c1cncnc1)N(C(=O)[C@H](F)Cl)c1ccc(OC(F)(F)C(F)(F)F)cc1` [Example 90b], the pIC50 is 6.00 to 7.00.
`C[C@](C(=O)NC1CCC(F)(F)CC1)(c1cccnc1)N(C(=O)[C@H](F)Cl)c1ccc(SC(F)(F)F)cc1` [Example 104a]: the negative logarithm of the IC50 (pIC50) was greater than 7.00.
Still for that read-out and setting: with `C[C@](C(=O)NC1CCC(F)(F)CC1)(c1cncnc1)N(C(=O)[C@H](F)Cl)c1ccc(-c2ccno2)cc1` [Example 2a] the figure was greater than 7.00.
The same measure, in the same setting: as for `CC1(C)COCC[C@H]1NC(=O)[C@@](C)(c1cncnc1)N(C(=O)[C@H](F)Cl)c1ccc(OC(F)(F)F)cc1` [Example 76a], the figure is greater than 7.00; as for `C[C@](C(=O)NC1CCOCC1)(c1cccnc1)N(C(=O)[C@H](F)Cl)c1ccc(OC(F)(F)Cl)cc1` [Example 111a], greater than 7.00; as for `C[C@@](C(=O)NC1CCC(F)(F)CC1)(c1cncc(F)c1)N(C(=O)[C@H](F)Cl)c1ccc(SC(F)(F)F)cc1` [Example 95b], 5.00 to 6.00.
`C[C@@](C(=O)NC1CCOCC1)(c1cncnc1)N(C(=O)[C@H](F)Cl)c1ccc(OC(F)(F)C(F)(F)F)cc1` [Example 32b]: the negative-log IC50 (pIC50) was 5.00 to 6.00.
Take `C[C@](C(=O)NC1CCOCC1)(c1cncc(F)c1)N(C(=O)[C@H](F)Cl)c1ccc(OC(F)(F)F)cc1` [Example 14a]: the negative-log IC50 (pIC50) was greater than 7.00.
Regarding `C[C@](C(=O)NC1CCOCC1)(c1cncnc1)N(C(=O)[C@H](F)Cl)c1ccc(-c2nccs2)cc1` [Example 101a], the pIC50 is greater than 7.00.
Take `C[C@@](C(=O)NC1CCOC1)(c1cncnc1)N(C(=O)[C@H](F)Cl)c1ccc(OC(F)(F)F)cc1` (single isomer, unassigned) [Example 6c]: the negative-log IC50 (pIC50) is 5.00 to 6.00.
For `C[C@@](C(=O)NC1CCC(F)(F)CC1)(c1cncnc1)N(C(=O)[C@H](F)Cl)c1ccc(-c2nccs2)cc1` [Example 100b], the negative-log IC50 (pIC50) was 6.00 to 7.00.
Take `C[C@](C(=O)NC1CCOC1)(c1cncnc1)N(C(=O)[C@H](F)Cl)c1ccc(OC(F)(F)F)cc1` (single isomer, unassigned) [Example 6a]: the negative logarithm of the IC50 (pIC50) was greater than 7.00.

The assay is the same for the next values; noted with them: M pro IC50, C-His6-tagged SARS-CoV-2 MPRO 25 nM, 30 min pre-incubation at RT, 60 min at 30° C., 10 doses from 25 μM.
The compound `CC(C(=O)N[C@H]1CC[C@H](OC(F)(F)F)CC1)(c1cncnc1)N(C(=O)[C@H](F)Cl)c1ccc(OC(F)(F)F)cc1` (stereo in doubt) [Example 8] had a pIC50 greater than 7.00.
In turn, `C[C@](C(=O)N[C@@H]1CC[C@H](NC(=O)C(F)(F)F)C1)(c1cncc(F)c1)N(C(=O)[C@H](F)Cl)c1ccc(OC(F)(F)F)cc1` [Example 109a] gave a negative-log IC50 (pIC50) greater than 7.00.
In turn, `C[C@](C(=O)NC1CCOCC1)(c1cncnc1)N(C(=O)[C@H](F)Cl)c1ccc(OC(F)(F)F)cc1F` [Example 27a] gave a pIC50 of 6.00 to 7.00.
Consider `CC1(C)C[C@@H](NC(=O)[C@](C)(c2cncnc2)N(C(=O)[C@H](F)Cl)c2ccc(OC(F)(F)F)cc2)CCO1` (single isomer, unassigned) [Example 77d], for which the pIC50 was less than 5.00.
`C[C@](C(=O)NC1CCC(F)(F)CC1)(c1cncnc1)N(C(=O)[C@H](F)Cl)c1ccc(OC(F)(F)F)cc1F` [Example 26a] showed a pIC50 of 6.00 to 7.00.
